IC50, EC50 and AC50 data for 19 molecules are collected here from ChEMBL document CHEMBL1201862, “PubChem BioAssay data set” (2004).

Usually IC50 stands for the concentration at which inhibition is half-maximal. One may read the EC50 as the concentration giving half of the maximal effect. A word on the AC50: it is the concentration giving half of the maximal activity seen.

Molecules are shown by their SMILES. Activity calls are given as the source filed them.

In one test the target is T1, Protein Tat (Human immunodeficiency virus type 1 group M subtype B (isolate HXB2)(HIV-1), UniProt P04608).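 Note: tat binding to TAR RNA read out by fluorescence polarization.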
T1 sequence (P04608 whole entry): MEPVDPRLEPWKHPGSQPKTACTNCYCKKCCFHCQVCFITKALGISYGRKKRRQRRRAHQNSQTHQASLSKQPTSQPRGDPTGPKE
It is filed as functional.

Test [1] can be described thus: A cytotoxicity screen of small molecule inhibitors of the PhoP region in Salmonella typhi identified in the primary screen. [Related pubchem assays: 1850, 1864, 1985 ]. Type of test: functional.
For the next test, the target named is Estrogen receptor beta (Homo sapiens, UniProt Q92731).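 Note: recombinant ER-beta bound to coactivator SRC1 peptide in presence of estradiol agonist; inhibitors block coactivator peptide binding and lower the FRET signal.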
A further test addresses Nonstructural protein 1 (Influenza A virus, UniProt Q194T2). It is filed as functional, Influenza A virus (A/California/07/2009(H1N1)).
Test [2] deals with T2, Carboxy-terminal domain RNA polymerase II polypeptide A small phosphatase 1 (Homo sapiens, UniProt Q9GZU7).
T2 sequence (Q9GZU7 whole entry): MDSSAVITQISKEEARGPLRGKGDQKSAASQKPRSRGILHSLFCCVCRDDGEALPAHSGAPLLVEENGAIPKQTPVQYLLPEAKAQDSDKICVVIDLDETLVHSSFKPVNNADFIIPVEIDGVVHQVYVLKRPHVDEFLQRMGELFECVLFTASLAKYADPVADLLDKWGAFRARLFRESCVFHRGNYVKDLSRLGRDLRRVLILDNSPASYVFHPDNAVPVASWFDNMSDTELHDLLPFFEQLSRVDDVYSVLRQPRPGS
The test can be described thus: inhibitors of CTDSP1, concentration-response testing, biochemical assay, absorbance-based, actives from ultra-high-throughput screening (AID 540297). It is filed as functional.

The target of test [3] is T3, Histone-lysine N-methyltransferase NSD2 (Homo sapiens, UniProt O96028).
T3 sequence (O96028 whole entry): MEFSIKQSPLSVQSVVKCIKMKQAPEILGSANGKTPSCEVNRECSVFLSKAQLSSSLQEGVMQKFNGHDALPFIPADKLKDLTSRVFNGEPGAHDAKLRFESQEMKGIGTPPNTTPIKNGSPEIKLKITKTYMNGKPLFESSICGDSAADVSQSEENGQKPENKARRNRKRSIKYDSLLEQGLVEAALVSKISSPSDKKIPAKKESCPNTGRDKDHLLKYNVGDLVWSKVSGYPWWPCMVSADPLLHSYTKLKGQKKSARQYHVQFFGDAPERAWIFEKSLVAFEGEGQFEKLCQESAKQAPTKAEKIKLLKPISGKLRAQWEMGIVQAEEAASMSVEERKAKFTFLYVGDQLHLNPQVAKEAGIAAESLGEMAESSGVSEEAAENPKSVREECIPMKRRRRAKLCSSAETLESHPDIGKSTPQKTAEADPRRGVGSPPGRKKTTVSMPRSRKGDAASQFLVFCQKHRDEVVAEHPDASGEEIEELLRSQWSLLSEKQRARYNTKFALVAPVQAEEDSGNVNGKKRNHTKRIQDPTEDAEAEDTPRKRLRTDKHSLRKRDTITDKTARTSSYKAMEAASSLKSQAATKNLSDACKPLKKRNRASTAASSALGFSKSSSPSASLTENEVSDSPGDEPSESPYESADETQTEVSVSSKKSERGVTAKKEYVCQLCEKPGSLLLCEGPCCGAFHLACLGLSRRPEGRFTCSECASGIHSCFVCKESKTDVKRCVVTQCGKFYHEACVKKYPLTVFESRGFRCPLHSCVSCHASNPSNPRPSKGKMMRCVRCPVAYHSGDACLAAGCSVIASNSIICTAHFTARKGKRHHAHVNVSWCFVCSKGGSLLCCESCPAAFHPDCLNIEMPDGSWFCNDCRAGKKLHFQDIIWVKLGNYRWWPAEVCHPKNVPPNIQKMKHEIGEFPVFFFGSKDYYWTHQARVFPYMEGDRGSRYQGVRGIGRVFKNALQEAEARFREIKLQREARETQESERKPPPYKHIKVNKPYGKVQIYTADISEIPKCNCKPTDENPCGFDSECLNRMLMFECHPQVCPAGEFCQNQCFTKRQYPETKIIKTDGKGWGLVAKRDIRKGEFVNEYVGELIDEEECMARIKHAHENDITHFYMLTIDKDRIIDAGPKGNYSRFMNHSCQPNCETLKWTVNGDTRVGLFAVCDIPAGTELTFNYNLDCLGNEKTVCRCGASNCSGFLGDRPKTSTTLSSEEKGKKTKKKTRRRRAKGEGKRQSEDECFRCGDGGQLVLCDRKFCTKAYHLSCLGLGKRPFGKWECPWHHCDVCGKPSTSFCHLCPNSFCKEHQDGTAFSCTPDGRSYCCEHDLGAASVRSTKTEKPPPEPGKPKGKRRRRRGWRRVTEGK
Type of test: biochemical.

The target of test [4] is T4, RNA-binding protein pos-1 (Caenorhabditis elegans, UniProt G5EF15).
T4 sequence (G5EF15 whole entry): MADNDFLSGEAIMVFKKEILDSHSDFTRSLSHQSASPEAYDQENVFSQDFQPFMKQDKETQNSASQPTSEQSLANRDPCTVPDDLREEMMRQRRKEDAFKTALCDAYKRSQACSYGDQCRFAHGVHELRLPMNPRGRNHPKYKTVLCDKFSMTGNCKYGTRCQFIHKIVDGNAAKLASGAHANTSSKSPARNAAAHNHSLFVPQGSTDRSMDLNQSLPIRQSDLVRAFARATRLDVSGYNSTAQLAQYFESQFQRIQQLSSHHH
The test can be described thus: inhibitors of POS-1/mex-3 RNA binding, dose response, biochemical, fluorescence polarization (AID 1964).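 Note: purified POS-1 fused to maltose binding protein made in E. coli; potency of compounds blocking POS-1 binding to fluorescent RNA.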

Test [5] is described as follows: cells. It is filed as functional, cell-based.
Test [6] is described as follows: cells. It is filed as functional, cell-based. The source holds these as a separate data set.
Test [7] addresses T5, Zinc finger protein mex-5 (Caenorhabditis elegans, UniProt Q9XUB2).
T5 sequence (Q9XUB2 whole entry): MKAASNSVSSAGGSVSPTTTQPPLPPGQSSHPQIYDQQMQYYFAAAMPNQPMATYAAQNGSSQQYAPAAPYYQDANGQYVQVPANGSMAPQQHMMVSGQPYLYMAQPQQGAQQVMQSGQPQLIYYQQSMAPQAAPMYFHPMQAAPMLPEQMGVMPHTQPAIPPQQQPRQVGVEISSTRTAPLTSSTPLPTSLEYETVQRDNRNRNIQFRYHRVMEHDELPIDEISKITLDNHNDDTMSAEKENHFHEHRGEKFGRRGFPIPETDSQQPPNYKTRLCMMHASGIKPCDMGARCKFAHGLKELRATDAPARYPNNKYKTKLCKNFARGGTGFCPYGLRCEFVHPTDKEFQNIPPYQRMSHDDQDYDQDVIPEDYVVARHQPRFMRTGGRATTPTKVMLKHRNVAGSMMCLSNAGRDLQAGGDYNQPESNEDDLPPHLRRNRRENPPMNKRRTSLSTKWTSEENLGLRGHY
The test can be described thus: MEX-5/TCR-2 RNA interaction inhibitors, dose response, biochemical, C. elegans, fluorescence polarization (AID 1960).

In a further test the target is T6, Hexokinase (Trypanosoma brucei, UniProt Q38C41).
T6 sequence (Q38C41 whole entry): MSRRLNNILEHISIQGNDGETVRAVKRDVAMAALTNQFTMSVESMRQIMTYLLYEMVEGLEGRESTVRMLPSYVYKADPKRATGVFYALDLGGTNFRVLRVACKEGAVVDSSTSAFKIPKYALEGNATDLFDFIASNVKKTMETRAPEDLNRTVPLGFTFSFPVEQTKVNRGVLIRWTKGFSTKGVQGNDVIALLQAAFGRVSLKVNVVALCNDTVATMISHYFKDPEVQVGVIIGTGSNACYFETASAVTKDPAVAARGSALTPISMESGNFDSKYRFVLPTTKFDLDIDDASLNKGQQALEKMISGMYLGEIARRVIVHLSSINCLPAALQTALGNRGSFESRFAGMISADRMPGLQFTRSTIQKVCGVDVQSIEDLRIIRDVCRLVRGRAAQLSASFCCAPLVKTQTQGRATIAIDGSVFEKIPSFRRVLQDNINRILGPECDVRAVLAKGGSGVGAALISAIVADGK
The test can be described thus: Confirmation assay for inhibitors of Trypanosoma brucei hexokinase 1-Analogue-first series. [Related pubchem assays (depositor defined):AID1430, AID1632, AID2516, AID2560, AID2579, AID2600, AID449725, AID492951]. Type of test: functional.

The next test addresses Paired box protein Pax-8 (Homo sapiens, UniProt Q06710). Description: inhibitors of PAX8-driven TPO luciferase reporter, dose response, RMG-I cells, cherry-pick (AID 687027).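 Note: luciferase reporter driven by Pax8 target thyroperoxidase promoter measured by SteadyGlo luminescence.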 It is filed as functional, cell-based. (Reporter assays use an easily measured gene product as a stand-in for the process of interest.)
Test [8] is described as follows: cytotoxicity in OVCAR8 ovarian cancer cells, dose response, PAX8 project, cell-based, plate reader, dry powder samples (AID 743197). Type of test: functional. Conditions: OVCAR-8.
A further test deals with Cytochrome P450 2C19 (Homo sapiens, UniProt P33261). Description: Cytochrome panel assay with activity outcomes. Panel member name: p450-cyp2c19 Compounds with AC50 equal or less than 10 uM are considered active. It is filed as functional. Conditions: read-out: AC50.
Sequence of Cytochrome P450 2C19 (P33261 whole entry): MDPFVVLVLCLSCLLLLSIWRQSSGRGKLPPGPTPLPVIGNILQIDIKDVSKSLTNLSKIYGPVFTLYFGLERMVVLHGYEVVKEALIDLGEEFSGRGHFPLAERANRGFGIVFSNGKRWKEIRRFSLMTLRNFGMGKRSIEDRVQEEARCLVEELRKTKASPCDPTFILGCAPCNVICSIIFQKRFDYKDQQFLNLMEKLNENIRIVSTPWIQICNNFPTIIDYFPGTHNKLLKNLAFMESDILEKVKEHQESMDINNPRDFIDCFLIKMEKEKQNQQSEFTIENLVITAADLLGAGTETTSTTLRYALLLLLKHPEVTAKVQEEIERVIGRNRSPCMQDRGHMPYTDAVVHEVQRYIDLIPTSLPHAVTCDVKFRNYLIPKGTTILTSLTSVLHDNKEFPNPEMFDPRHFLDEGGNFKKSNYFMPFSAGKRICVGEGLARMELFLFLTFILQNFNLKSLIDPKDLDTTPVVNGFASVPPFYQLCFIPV

Sequence of Nonstructural protein 1 (Q194T2 whole entry, the tested form may be a part): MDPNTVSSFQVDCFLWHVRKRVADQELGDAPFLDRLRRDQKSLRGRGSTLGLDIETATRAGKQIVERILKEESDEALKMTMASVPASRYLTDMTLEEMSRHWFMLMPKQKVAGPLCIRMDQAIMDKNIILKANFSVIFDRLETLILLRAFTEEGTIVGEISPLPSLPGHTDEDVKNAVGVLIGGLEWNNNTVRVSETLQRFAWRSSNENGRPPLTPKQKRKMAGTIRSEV
Sequence of Paired box protein Pax-8 (Q06710 whole entry): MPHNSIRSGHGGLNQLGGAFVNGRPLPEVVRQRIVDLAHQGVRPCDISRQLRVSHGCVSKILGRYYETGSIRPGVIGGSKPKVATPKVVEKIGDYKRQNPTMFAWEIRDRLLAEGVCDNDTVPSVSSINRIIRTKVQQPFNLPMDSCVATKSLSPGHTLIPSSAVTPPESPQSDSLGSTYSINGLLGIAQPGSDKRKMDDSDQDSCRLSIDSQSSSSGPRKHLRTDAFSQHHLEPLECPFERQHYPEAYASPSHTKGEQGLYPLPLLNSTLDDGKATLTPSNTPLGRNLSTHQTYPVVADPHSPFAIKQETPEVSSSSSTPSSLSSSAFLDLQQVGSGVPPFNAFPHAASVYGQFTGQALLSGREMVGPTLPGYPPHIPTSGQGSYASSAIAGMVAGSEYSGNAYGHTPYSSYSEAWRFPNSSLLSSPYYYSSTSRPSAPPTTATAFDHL
Sequence of Estrogen receptor beta (Q92731 whole entry): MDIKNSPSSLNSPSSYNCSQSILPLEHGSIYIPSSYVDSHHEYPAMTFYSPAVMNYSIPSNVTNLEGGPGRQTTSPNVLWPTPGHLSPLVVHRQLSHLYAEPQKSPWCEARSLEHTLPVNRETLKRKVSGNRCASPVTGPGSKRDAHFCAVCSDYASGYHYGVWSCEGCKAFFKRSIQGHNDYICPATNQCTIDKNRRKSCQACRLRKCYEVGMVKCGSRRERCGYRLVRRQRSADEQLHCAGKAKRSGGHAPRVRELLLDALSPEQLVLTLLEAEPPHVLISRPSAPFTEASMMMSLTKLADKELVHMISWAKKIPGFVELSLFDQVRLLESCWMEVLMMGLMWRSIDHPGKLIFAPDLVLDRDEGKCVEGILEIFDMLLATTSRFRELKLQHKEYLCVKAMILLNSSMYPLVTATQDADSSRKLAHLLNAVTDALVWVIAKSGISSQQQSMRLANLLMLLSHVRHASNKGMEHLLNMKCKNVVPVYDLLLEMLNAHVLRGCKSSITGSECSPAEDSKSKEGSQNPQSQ

On to `CCc1ccc2nc(N3CCN(C)CC3)c(C#N)cc2c1`, for which the IC50 on Protein Tat is > 100 µM (active).
On to `COc1ccc(-c2nnc(SC(C)C(=O)Nc3nccs3)n2Cc2ccccc2)cc1OC` (configuration not stated), for which, in [1], the concentration for a half-maximal effect (EC50) is > 50 µM (active).
For the molecule `Cc1nccn1-c1ncnc2sc3c(c12)CCCC3`, the IC50 against Estrogen receptor beta is on record as > 50 µM (not active).
On to `CCN1C(c2ccccc2)=C(c2ccccc2)S/C1=C/C=C1\SC(=S)N(C)C1=O`, for which the IC50 at Nonstructural protein 1 is 7.78 µM (active).
In the case of `O=C(O)c1cccc(-n2cccc2/C=C2/SC(=O)N(CC(=O)N3CCCC3)C2=O)c1`, the IC50 in [2] is 5.53 µM (active). Besides, in test [3], the AC50 is > 20 µM (inactive). The EC50 was > 300 µM (not active) in test [4], > 350 µM (not active) in the test “cells [5]”, > 350 µM (not active) in the test “cells [6]” and > 300 µM (not active) in [7].
Turning to `O=C1[C@@H]2C(Cc3ccc(O)cc3)NC3(C(=O)Nc4ccc(F)cc43)[C@@H]2C(=O)N1c1ccc(F)cc1` (some centres not stated), the IC50 at Protein Tat is > 100 µM (active).
Consider `CC(C(=O)NC1CCS(=O)(=O)C1)N1C(=O)/C(=C/c2ccc(Cl)cc2)SC1=S` (configuration not stated), for which the EC50 in test [1] was > 50 µM (active).
Still for that read-out and setting: for `N=c1c(C(=O)NCC2CCCO2)cc2c(=O)n3ccccc3nc2n1Cc1ccc(Cl)cc1` (configuration not stated) the value was > 50 µM (active).
Turning to `CN1CC(C(=O)c2ccc(Cl)cc2)C(c2ccc(N(C)C)cc2)C1` (configuration not stated), on Nonstructural protein 1, the IC50 was 43.8 µM (active).
`[O-][n+]1c2ccccc2cc2ccccc21`: in test [1], the EC50 was > 50 µM (active).
Take `Brc1ccc2nc(-c3c[nH]c4ccccc34)cn2c1`: the EC50 in test [1] was > 50 µM (active).
Consider `O=C(Nc1ccc(O)cc1C(=O)O)c1ccc2c(c1)C(=O)N(Cc1ccco1)C2=O`, for which the IC50 at Estrogen receptor beta was 13.8 µM (active).
As for `Cc1ccc(C(=O)Nc2cc(Cl)ccc2C(=O)O)cc1`, the IC50 on Hexokinase is 13.8 µM (active).
Consider `C=C(C)c1ccc(C(=O)Nc2cc(Cl)ccc2C(=O)O)cc1`, for which the IC50 at Hexokinase is 7.16 µM (active).
On to `Cn1sc(=O)c2ccccc21`, for which the IC50 at Hexokinase is > 25 µM (inactive).
For `C[C@H]1CCCCO[C@H](CN(C)C(=O)Nc2ccc(C(F)(F)F)cc2)[C@@H](C)CN([C@@H](C)CO)C(=O)c2cc(NS(=O)(=O)c3ccc(F)cc3)ccc2O1`, the AC50 is 4.63 µM (active) on Paired box protein Pax-8 and > 70 µM (inactive) in test [8].
The matching figures for `C[C@@H]1CN([C@@H](C)CO)C(=O)Cc2cc(NC(=O)Nc3ccc(C(F)(F)F)cc3)ccc2O[C@H]1CN(C)C(=O)Nc1ccc(C(F)(F)F)cc1`: 8.87 µM (active) and > 70 µM (inactive).
`COC(=O)c1ccc(Cl)cc1NC(=O)c1ccc(OC)cc1`: at Hexokinase, the IC50 is > 25 µM (inactive).
Take `O=C(N/N=C/c1ccccn1)c1ccc(Br)o1`: the AC50 at Cytochrome P450 2C19 was 35.5 µM (inconclusive). Moreover, the EC50 in [1] was > 50 µM (active).
